# Experimental data: patent publication US20260108547A1, “LEVERAGING L-FUCOSE-MEDIATED SIGNALING TO INDUCE MONOCYTE-DERIVED DENDRITIC CELL POLARIZATION” (H. LEE MOFFITT CANCER CENTER AND RESEARCH INSTITUTE, INC., priority 2022, published 2026)
# Key:
# PD-L1 = test: Flow cytometric assessment of cell surface PD-L1, mouse melanoma cells (SW1, SM1); assay type: cell-based
# Procedure: Indicated cells were treated for 72 h with DMSO, 250 μM fucosyltransferase inhibitor (FUTi) (Millipore Sigma (St. Louis, MO)), or 250 μM of L-fucose (Biosynth (Oak Terrace, IL)). After 72 h, cells were stained with 0.1 μM PKH26 (Millipore Sigma (St. Louis, MO)) prior to fixation in 4% formaldehyde solution. The cells were stained with anti-HLA-DRB1 and fluorescein AAL, or anti-human or anti-mouse PD-L1 overnight. The following day the cells were washed 3 times prior to adding AlexaFluor 594 donkey anti-rabbit. Cells were washed 3 times and then subject to flow cytometric analyses using a FACSCalibur (BD Biosciences (San Jose, CA)). Samples were analyzed using FlowJo analysis software (BD Biosciences (San Jose, CA)). Median values of DRB1 and AAL were normalized to PKH26 values and statistical analysis was performed using GraphPad Prism.
# moDCs [1] = test: moDC dendrite length, phagocytosis (bead uptake) and Fitc-dextran uptake; assay type: cell-based
# Text: Our preliminary studies have begun to dissect and highlight moDC signaling changes induced by L-fuc treatment. Here, we present and discuss our novel findings on L-fuc-induced DC/moDC biology, the key mechanistic signaling changes that mediate these effects, and the important translational implications of these findings for efforts aimed at increasing/enhancing intratumoral DC function and anti-tumor immune responses.
# Next we wanted to determine if L-fucose enhances the function phenotype of moDCs. […] Having determined that L-fucose alters the signaling of moDCs leading to an immunostimulatory phenotype, we next sought to identify other components of DC biology that are affected. To this end we examined L-fucose-treated mature dendritic cells for changes in (FIG. 26A) dendrite length and (FIG. 26B) phagocytosis by neutral bead uptake which may correlate with differential anti-tumor capacity in the TME.
# [2] = tested on: bone marrow-derived MCs (BMMCs); test: BMMC / T cell ex vivo co-culture (CTV proliferation, interferon-gamma release); assay type: cell-based
# Text: We next sought to see how the immunostimulatory capacity of these cells was altered after L-fucose treatment by culturing L-fucose modulated, either by decreased fucosylation via 2FF or increased fucosylation by L-fuc, MCs with immature T cells to asses (FIG. 22B) proliferation by loss of CTV staining and (FIG. 22C) T cell activation as evident by interferon-gamma release.
# SM1 tumors = test: Flow cytometric profiling of tumors and draining lymph nodes, SM1 tumors in C57BL/6 mice fed ± L-fucose and treated ± anti-PD-1 (Table 2); assay type: in vivo, mouse
# Procedure: (§1) Tumors of SW1 or SM1 melanoma cells from […] or C57BL/6 mice, respectively) were digested using 1× tumor digest buffer (0.5 mg/mL Collagenase I, 0.5 mg/mL Collagenase IV, 0.25 mg/mL Hyalyronidase V, 0.1 mg/mL DNAse I in HBSS (Millipore Sigma (St. Louis, MO)). Tumors were homogenized using the Miltenyi MACs dissociator. Red blood cells were lysed using ACK lysis buffer (Life Technologies, (Grand Island, NY)). Tumor homogenate cells were counted using a standard hemocytometer.
# Total TILs were gated first to single cells (based on forward scatter height vs width, followed by side scatter height vs. width). Live cells were gated from the Zombie negative population from the population above. TILs were gated based on splenocyte size from a control spleen. Individual immune subpopulations were sub-gated from the total TIL population using the following staining criteria: CD3^+ for CD3^+ T cells; CD3^+/CD4^+/CD8^− for CD4^+T cells; CD3^+/CD4^−/CD8^+ for CD8^+ T cells, CD11c^+/CD11b^+ for DCs; either NK1.1 (for C57/BL6 mice) or DX5 (for C3H/HeJ) for NK cells; CD11b^+/GR1^+ for MDSC-like cells; and F4/80^+ for macrophages. Single-cell suspensions from tumor and spleen tissue were stained with Live/Dead Zombie NIR (Biolegend, (San Diego, CA)) at 1:1,000 in PBS for 20 min. […]
# [3] = Mouse models of tumor growth and metastasis, dietary L-fucose supplementation; assay type: in vivo
# SW1 tumors = test: itIC and splenic flow cytometric profiling, SW1 tumor-bearing C3H/HeN mice; assay type: in vivo, mouse; conditions: oral L-fuc; SW1 model
# Procedure: as §1
# Total TILs were gated first to single cells (based on forward scatter height vs width, followed by side scatter height vs. width). Live cells were gated from the Zombie negative population from the population above. TILs were gated based on splenocyte size from a control spleen. Individual immune subpopulations were sub-gated from the total TIL population using the following staining criteria: CD3^+ for CD3^+ T cells; CD3^+/CD4^+/CD8^− for CD4^+T cells; CD3^+/CD4^−/CD8^+ for CD8^+ T cells, CD11c^+/CD11b^+ for DCs; either NK1.1 (for C57/BL6 mice) or DX5 (for C3H/HeJ) for NK cells; CD11b^+/GR1^+ for MDSC-like cells; and F4/80^+ for macrophages. Single-cell suspensions from tumor and spleen tissue were stained with Live/Dead Zombie NIR (Biolegend, (San Diego, CA)) at 1:1,000 in PBS for 20 min. Cell suspensions were spun down and stained with the following with antibodies at 0.5 μg/ml per antibody: APC anti-mouse CD3, Pacific Blue anti-mouse CD4, BV785 anti-mouse CD8, PerCP anti-mouse CD25, FITC anti-mouse F4/80, PeCy7 anti-mouse CD11c, PE anti-mouse NK1.1 or PE anti-mouse DX5, and PerCP-Cy5.5 anti-mouse CD11b. After staining, the cells were washed and fixed (2% formaldehyde), followed by another wash and flow cytometric analysis. The compensation controls were prepared using 0.5 μg/mL of each antibody with UltraComp eBeads, (ThermoFisher Scientific (Waltham, MA)). All samples were subject to flow cytometric profiling using a LSR Flow Cytometer (BD Biosciences (San Jose, CA)) and analysis as indicated using FlowJo software (BD Biosciences (San Jose, CA)).
# BMMC = test: Flow cytometric DC polarization of BMMC; assay type: cell-based
# Procedure: We next investigated the effect of L-fucose on dendritic cell differentiation. To test whether L-fucose affected immature or mature myeloid cells preferentially, BMMC were treated with L-fucose at various stages of development, pre=before maturation cocktail, concurrent=during maturation cocktail or post=after maturation cocktail (FIG. 23A). […] We next sought to determine if L-fucose equally affected subpopulations of DCs. By flow cytometric analysis we were able to determine that moDC are affected most by the modulation of fucosylation in immature myeloid cell populations.
# moDCs [4] = test: moDC cytokine production, qPCR and immunoblot of signaling pathways; assay type: cell-based
# Text: To determine if the changes in DC polarization and CD209 expression were associated with differential signaling changes in moDCs we analyzed known suppressive and stimulatory pathways by (FIG. 25A) cytokine production and (FIG. 25B) qPCR. […] (C) To elucidate the mechanism by which L-fucose was repressing immunosuppression in moDCs we preformed immunoblot analysis of several key signaling pathways in moDC activation of cells treated +/−L-fucose and +/−maturation via LPS. Additionally, we identified transcription factors that may play a role in altering the signaling and cytokine profiles of moDC to further validate the changes in immunomodulatory activity we observe.
compound,measurement,setting,value
C[C@H](O)[C@@H](O)[C@@H](O)[C@H](O)C=O [L-fucose],cell surface levels of PD-L1,PD-L1,does not alter
same,dendrite length of moDCs,moDCs [1],increased
same,uptake of exogenous Fitc-dextran bait by L-fuc-induced moDCs,moDCs [1]; compared with untreated DCs,significantly increased rate
same,phagocytosis of moDCs,moDCs [1]; neutral bead uptake,increased
same,immunostimulatory capacity of treated dendritic cells (DCs),[2],enhanced immunostimulatory capacity
same,average # of cDC2 cells,"SM1 tumors; Day 21, lymph nodes",13997.11 per 10^6 cells
same,intratumoral CD4+T central and effector memory cells,"SM1 tumors; SM1 model, L-fuc alone",increased
same,blocks tumor growth and metastasis,[3],> 50%
same,"CD4+ and CD8+ T cells, most increased subpopulation of total itICs",SW1 tumors,doubled
same,increased total itICs,SW1 tumors,10-50 fold
same,splenic lymphocyte profiles,SW1 tumors,without altering splenic lymphocyte profiles
same,polarization of myeloid cells (DC subpopulations),BMMC; flow cytometric analysis,polarizes myeloid cells towards a moDC phenotype
same,absolute DC numbers,BMMC; flow cytometric profiling of BMMCs,without affecting absolute DC numbers
same,DC polarization of BMMC,"BMMC; treated pre, concurrent or post maturation cocktail",leads to DC polarization of BMMC at any stage of myeloid development
same,immunosuppressive signature of DCs,"moDCs [4]; cytokine production, qPCR",decreased immunosuppressive signature
same,iNOS and p65 activation in moDC,"moDCs [4]; immunoblot, +/- LPS maturation",decreased iNOS and p65 activation
